Tests used:
Toxicokinetics in rats = type: in vivo, rat
Description: A study is carried out to assess the toxicity and toxicokinetics of 4,4,4-Trifluoro-N-[(1S)-2-[[(7S)-5-(2-hydroxyethyl)-6-oxo-7H-pyrido[2,3-d][3]benzazepin-7-yl]amino]-1-methyl-2-oxo-ethyl]butanamide in rats given oral gavage doses of 0, 1.3, or 4.3 mg/kg once daily for 2 weeks or 1, 3, 10, or 30 mg/kg 3 times/week for 2 weeks.
4,4,4-Trifluoro-N-[(1S)-2-[[(7S)-5-(2-hydroxyethyl)-6-oxo-7H-pyrido[2,3-d][3]benzazepin-7-yl]amino]-1-methyl-2-oxo-ethyl]butanamide is combined with a vehicle comprising 1% carboxymethylcellulose sodium, 0.25% polysorbate 80 and 0.05% Dow Corning® Antifoam 1510-US in purified water. Sprague Dawley CD®/IGS rats (crl:CD(SD)), International Genetic Standardization (IGS) 7-9 week old rats, 3/sex/group, Charles River Laboratories, Inc, are used for the study. Animals are fed ad libitum with 12 hours light, 12 hours dark cycle maintained in ventilated stainless-steel racks at an ambient temperature of 22.2+/[…] and relative humidity of 30% to 70%. The test compound is dosed according to Table 1. The test compound is administered by oral gavage in a volume of 10 mL/kg body weight. The duration of the study for all groups is 14 days.
Additional Groups of animals 3/sex/group (Groups 08, 09, and 12) and 3 females/group (Groups 10, 11, and 13) are dosed for toxicokinetic evaluations. For Groups 08, 09, and 10, blood is collected from each animal at the following times relative to dosing on Days 3 and 14: 0 (predose; Day 14 only), 0.5, 1, 2, 4, 8, 24, 30, and 48 hours postdose. For Group 11, blood is collected from each animal at the following times relative to dosing on Day 3: 0.5, 1, 2, 4, 8, 24, 30, and 48 hours postdose. For Group 12, blood is collected from each animal at the following times relative to dosing on Days 1 and 14: 0 (predose; Day 14 only), 0.5, 1, 2, 4, 8, and 24 hours postdose. For Group 13 blood is collected from each animal at the following times relative to dosing on Day 1: 0.5, 1, 2, 4, 8, and 24 hours postdose. Groups 08 through 13 are used for toxicokinetic evaluations. […]

[1] = system: U-87 MG human glioblastoma cell line; assay: Tumor growth inhibition, U-87 MG xenograft; type: in vivo; conditions: U-87 MG in mice, oral 8 mg/kg, (Mon, Wed, Fri)x4; p <0.0001
Description: To evaluate in vivo efficacy and effect of 4,4,4-Trifluoro-N-[(1S)-2-[[(7S)-5-(2-hydroxyethyl)-6-oxo-7H-pyrido[2,3-d][3]benzazepin-7-yl]amino]-1-methyl-2-oxo-ethyl]butanamide on inhibition of Notch processing pharmacodynamics (PD), several cell lines- and patient-derived xenograft models are used. A2780 is a human ovarian cell line (Sigma-Aldrich, No. 93112519); SW480 is a human colorectal cell line (ATCC No. CCL-228); HCT 116 is a human colorectal cell line (ATCC No. CCL-247); U-87 MG is a human glioblastoma cell line (ATCC No. HTB-14); A375 is a human malignant melanoma cell line (ATCC No. CRL-1619); K-562 is a human chronic myelogenous leukemia (CML) cell line characterized by the presence of a fusion transcript comprised of the Bcr and Abl1 genes (ATCC No. CCL-243); Jurkat; HEL 92.1.7 is a human erythroleukemia cell line (ATCC No. TIB-180). […] Tumor growth and body weight are monitored over time to evaluate efficacy and signs of toxicity. Bidimensional measurements of tumors are performed twice a week and tumor volumes are calculated based on the following formula: (Tumor Volume)=[(L)×(W2)×(Π/6)] where L is mid-axis length and W is mid-axis width. […] The log volume data are analyzed with a two-way repeated measures analysis of variance by time and treatment using the MIXED™ procedures in SAS™ software (version 8.2). […]

SMILES: C[C@H](NC(=O)CCC(F)(F)F)C(=O)N[C@@H]1C(=O)N(CCO)c2ncccc2-c2ccccc21 [Compound 1, 4,4,4-trifluoro-N-[(1S)-2-[[(7S)-5-(2-hydroxyethyl)-6-oxo-7H-pyrido[2,3-d][3]benzazepin-7-yl]amino]-1-methyl-2-oxo-ethyl]butanamide]
- 24 hour drug concentrations (Toxicokinetics in rats; rat, daily and TIW regimens): minimal
- Accumulation and differences between sexes in exposure (Toxicokinetics in rats; rats, oral gavage): No accumulation or major differences between sexes
- Exposure (AUC0-24 hr) versus dose (Toxicokinetics in rats; rats, oral gavage, following both single and multiple doses): increased in a roughly linear and dose-proportional manner
- % TGI [1]: 53.33 (<0.0001) %

Source: US20190209581A1, “DOSAGE REGIMEN FOR TREATMENT OF SOLID TUMORS” (Eli Lilly and Company, priority 2016, published 2019)
